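Briefly, cells in 96-well plates were exposed to five compound concentrations for 48 h, and endpoints were estimated by linear interpolation. At the GI50, growth is halved.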 Calls of active or inactive are those of the source. Cut-off read from the data, not from the text of the source: active = GI50 up to about 1.1 µM and inactive = higher.
Key:
Experiment in all cases: NCI-60 cell line screen, 48 h
[1] = tested on: 786-0
[2] = tested on: A498
[3] = tested on: A549
[4] = tested on: ACHN
[5] = tested on: CAKI-1
[6] = tested on: CCRF-CEM
[7] = tested on: COLO 205
[8] = tested on: DLD-1
[9] = tested on: DMS-114
[10] = tested on: DMS-273
[11] = tested on: EKVX
[12] = tested on: HCC 2998
[13] = tested on: HCT-116
[14] = tested on: HCT-15
[15] = tested on: HL-60
[16] = tested on: HOP-62
[17] = tested on: HOP-92
[18] = tested on: HT-29
[19] = tested on: IGROV-1
[20] = tested on: K562
[21] = tested on: KM-20L2
[22] = tested on: KM12
[23] = tested on: LOX IMVI
[24] = tested on: LXFL 529
[25] = tested on: M14
[26] = tested on: M19-MEL
[27] = tested on: MOLT-4
[28] = tested on: Malme-3M
[29] = tested on: NCI-H226
[30] = tested on: NCI-H23
[31] = tested on: NCI-H460
[32] = tested on: NCI-H522
[33] = tested on: OVCAR-3
[34] = tested on: OVCAR-4
[35] = tested on: OVCAR-5
[36] = tested on: OVCAR-8
[37] = tested on: RPMI-8226
[38] = tested on: RXF 393
[39] = tested on: RXF 631
[40] = tested on: SF-268
[41] = tested on: SF-295
[42] = tested on: SF-539
[43] = tested on: SK-MEL-28
[44] = tested on: SK-MEL-2
[45] = tested on: SK-MEL-5
[46] = tested on: SK-OV-3
[47] = tested on: SN12C
[48] = tested on: SNB-19
[49] = tested on: SNB-75
[50] = tested on: SNB-78
[51] = tested on: SW-620
[52] = tested on: TK-10
[53] = tested on: U-251
[54] = tested on: UACC-257
[55] = tested on: UACC-62
[56] = tested on: UO-31
[57] = tested on: XF498
[58] = tested on: SR

N#C/C(=C\c1cccc(O)c1)C(N)=O
GI50 [1]: > 100 µM (inactive) | GI50 [2]: > 100 µM (inactive) | GI50 [3]: > 100 µM (inactive) | GI50 [4]: > 100 µM (inactive) | GI50 [5]: > 100 µM (inactive) | GI50 [6]: > 100 µM (inactive) | GI50 [7]: > 100 µM (inactive) | GI50 [8]: > 100 µM (inactive) | GI50 [9]: > 100 µM (inactive) | GI50 [10]: > 100 µM (inactive) | GI50 [11]: > 100 µM (inactive) | GI50 [12]: > 100 µM (inactive) | GI50 [13]: > 100 µM (inactive) | GI50 [14]: > 100 µM | GI50 [15]: 20.9 µM (inactive) | GI50 [16]: > 100 µM (inactive) | GI50 [17]: > 100 µM (inactive) | GI50 [18]: > 100 µM (inactive) | GI50 [19]: > 100 µM (inactive) | GI50 [20]: > 100 µM (inactive) | GI50 [21]: > 100 µM (inactive) | GI50 [22]: > 100 µM (inactive) | GI50 [23]: > 100 µM (inactive) | GI50 [24]: > 100 µM (inactive) | GI50 [25]: > 100 µM (inactive) | GI50 [26]: > 100 µM (inactive) | GI50 [27]: > 100 µM (inactive) | GI50 [28]: > 100 µM (inactive) | GI50 [29]: > 100 µM (inactive) | GI50 [30]: > 100 µM (inactive) | GI50 [31]: > 100 µM (inactive) | GI50 [32]: > 100 µM (inactive) | GI50 [33]: > 100 µM (inactive) | GI50 [34]: > 100 µM (inactive) | GI50 [35]: > 100 µM (inactive) | GI50 [36]: > 100 µM (inactive) | GI50 [37]: > 100 µM (inactive) | GI50 [38]: 61.4 µM (inactive) | GI50 [39]: > 100 µM (inactive) | GI50 [40]: > 100 µM (inactive) | GI50 [41]: > 100 µM (inactive) | GI50 [42]: > 100 µM (inactive) | GI50 [43]: > 100 µM (inactive) | GI50 [44]: > 100 µM (inactive) | GI50 [45]: > 100 µM (inactive) | GI50 [46]: > 100 µM (inactive) | GI50 [47]: > 100 µM (inactive) | GI50 [48]: > 100 µM (inactive) | GI50 [49]: 22.3 µM (inactive) | GI50 [50]: > 100 µM (inactive) | GI50 [51]: > 100 µM (inactive) | GI50 [52]: > 100 µM (inactive) | GI50 [53]: > 100 µM (inactive) | GI50 [54]: > 100 µM (inactive) | GI50 [55]: > 100 µM (inactive) | GI50 [56]: > 100 µM (inactive) | GI50 [57]: > 100 µM (inactive)

CCN1c2ccccc2-c2c3c1cc(C)cc3c1ccccc1[n+]2CC
GI50 [1]: 1.59 µM (inactive) | GI50 [2]: 3.26 µM (inactive) | GI50 [3]: 2.4 µM (inactive) | GI50 [4]: 2.16 µM (inactive) | GI50 [5]: 2.26 µM (inactive) | GI50 [6]: 0.621 µM (active) | GI50 [8]: 2.55 µM (inactive) | GI50 [9]: 0.461 µM (active) | GI50 [10]: 0.385 µM (active) | GI50 [12]: 0.811 µM (active) | GI50 [13]: 0.644 µM (active) | GI50 [14]: 6.22 µM | GI50 [15]: 1.16 µM (inactive) | GI50 [16]: 2.04 µM (inactive) | GI50 [17]: 1.4 µM (inactive) | GI50 [18]: 1.41 µM (inactive) | GI50 [19]: 1.66 µM (inactive) | GI50 [20]: 0.323 µM (active) | GI50 [22]: 0.339 µM (active) | GI50 [23]: 0.386 µM (active) | GI50 [24]: 0.384 µM (active) | GI50 [25]: 1.69 µM (inactive) | GI50 [26]: 0.36 µM (active) | GI50 [27]: 1.04 µM (active) | GI50 [28]: 1.15 µM (inactive) | GI50 [29]: 1.75 µM (inactive) | GI50 [30]: 1.32 µM (inactive) | GI50 [31]: 1.23 µM (inactive) | GI50 [32]: 1.26 µM (inactive) | GI50 [33]: 0.476 µM (active) | GI50 [34]: 1.57 µM (inactive) | GI50 [35]: 1.5 µM (inactive) | GI50 [36]: 0.427 µM (active) | GI50 [37]: 0.466 µM (active) | GI50 [38]: 2.96 µM (inactive) | GI50 [39]: 5.24 µM (inactive) | GI50 [40]: 0.522 µM (active) | GI50 [41]: 0.78 µM (active) | GI50 [42]: 1.19 µM (inactive) | GI50 [43]: 1.19 µM (inactive) | GI50 [44]: 1.21 µM (inactive) | GI50 [45]: 0.52 µM (active) | GI50 [46]: 1.83 µM (inactive) | GI50 [47]: 0.659 µM (active) | GI50 [48]: 0.528 µM (active) | GI50 [49]: 0.798 µM (active) | GI50 [50]: 2.64 µM (inactive) | GI50 [58]: 1.55 µM (inactive) | GI50 [51]: 1.11 µM (active) | GI50 [52]: 2.56 µM (inactive) | GI50 [53]: 0.571 µM (active) | GI50 [54]: 0.437 µM (active) | GI50 [55]: 0.743 µM (active) | GI50 [56]: 7.13 µM (inactive)

Source: ChEMBL document CHEMBL1201862, “PubChem BioAssay data set” (2004)
